Tests used:
[1] = test system: E. coli; test: Minimum Inhibitory Concentration (MIC) assay, broth microdilution and alamar blue; assay type: cell-based; settings: single-active controls; 24 hours incubation
[2] = test system: X. alfalfae; test: as above; assay type: cell-based; settings: single-active controls; 24 hours incubation
Method: Although not depicted in the figures, the antimicrobial properties of LSP materials and components were studied using standard microbiological technique to determine the Minimum Inhibitory Concentration (MIC). Samples were tested against Gram-negative Xanthomonas alfalfae subsp. citrumelonis strain F1 (ATCC 49120, a citrus canker surrogate), Gram-negative Pseudomonas syringae pv. syringae (ATCC 19310, causative agent of bacterial speck in Lilac, almond, apricots, peaches and wild beans among others) and Gram positive Clavibacter michiganensis subsp. michiganensis (ATCC 10202, causative agent of bacterial wilt and canker in Tomato sp). X. alfalfae and P. syringae were maintained with nutrient agar and broth while C. michiganensis was grown with brain heart infusion (BHI) media. All bacteria were grown at 26° C. in a shaking incubator (150 rpm).
Minimum Inhibitory Concentration (MIC) Assay
MIC was determined using two different methods: • a. Broth microdilution: Protocols as delineated by the Clinical and Laboratory Standards Institute (CLSI) were followed for conducting MIC studies to be in compliance with American Society of Microbiology guidelines. […] Since broth microdilution is based only on light absorbance, low concentration of bacteria can fall below the detection limit of the traditional optical density measurement. […]

## O=S(=O)([O-])[O-].[Cu+2] [CuSO4]
[1]
  MIC E. coli: 250-500 μg active/mL
[2]
  MIC X. alfalfae: 125-250 μg active/mL

## CCCCCCCCCC[N+](C)(C)CCCCCCCCCC.[Cl-] [Quat, Didecyl Dimethyl Ammonium Chloride]
[1]
  MIC E. coli: 2-4 μg active/mL
[2]
  MIC X. alfalfae: 2-4 μg active/mL
